Measured values from PMC11279465, “Dual Inhibitors of P-gp and Carbonic Anhydrase XII (hCA XII) against Tumor Multidrug Resistance with Piperazine Scaffold” (Molecules, 2024).

Assays:
hCA IX = target: T1, hCA IX (Homo sapiens, UniProt Q16790); experiment: CA inhibition, stopped-flow CO2 hydrase assay; format: biochemical; conditions: stopped-flow technique; incubation time 6 h; mean of 3 assays
T1 construct: made in house
Procedure, shortened: (§1)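 Stopped-flow CO2 hydration used saturated CO2 solutions at 25 °C as substrate. Enzyme and inhibitor (10 μM stocks in DMSO-water, diluted down to 0.01 nM) were preincubated for 6 h at room temperature.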

hCA I = target: T2, hCA I (Homo sapiens, UniProt P00915); experiment: CA inhibition, stopped-flow CO2 hydrase assay; format: biochemical; conditions: stopped-flow technique; incubation time 6 h; mean of 3 assays
T2 construct: made in house
Procedure, shortened: as §1

hCA II = target: T3, hCA II (Homo sapiens, UniProt P00918); experiment: CA inhibition, stopped-flow CO2 hydrase assay; format: biochemical; conditions: stopped-flow technique; incubation time 6 h; mean of 3 assays
T3 construct: made in house
Procedure, shortened: as §1

hCA XII = target: T4, hCA XII (Homo sapiens, UniProt O43570); experiment: CA inhibition, stopped-flow CO2 hydrase assay; format: biochemical; conditions: stopped-flow technique; incubation time 6 h; mean of 3 assays
T4 construct: made in house
Procedure, shortened: as §1

HT29/DOX cells [1] = experiment: Intracellular doxorubicin accumulation; format: cell-based, human; conditions: compound at 3 µM + doxorubicin 5 µM, 24 h, vs doxorubicin alone
Procedure: (§2) Furthermore, we evaluated the intracellular accumulation of 5 µM doxorubicin in HT29/DOX and A549/DOX cells alone and in the presence of derivatives 1, 2, 4–6, 14, 19 and 33, studied at 1 and 3 µM. This test allowed us to investigate if the reduced viability measured in the co-administration assay was due to different retention of the anticancer drug within the cells. In the parental HT29 and A549 cell lines, we measured a greater amount of intracellular doxorubicin compared to their resistant counterparts, which was not enhanced by our selected compounds (Supplementary Materials, Figure S7). However, in HT29/DOX and A549/DOX cells, derivatives 1, 2, 4–6, 14, 19 and 33 were able to increase the intracellular retention of the anticancer drug, in a dose-dependent way. […]
(§3) Intracellular doxorubicin was measured in 10,000 cells seeded into 96-well plates and incubated for 24 h with 5 µM doxorubicin with or without 1 µM and 3 µM of each compound. The intracellular drug content was measured fluorimetrically as detailed previously using a Synergy HTX 96-well plate reader. The results were expressed as nmol doxorubicin/mg cell proteins based on the titration curve previously prepared.

A549/DOX cells [2] = experiment: Intracellular doxorubicin accumulation; format: cell-based, human; conditions: compound at 3 µM + doxorubicin 5 µM, 24 h, vs doxorubicin alone
Procedure: as §2, §3

HT29/DOX cells [3] = experiment: Doxorubicin co-administration assay (MTT); format: cell-based, human; conditions: compound at 3 µM + doxorubicin 5 µM, 48 h
Procedure: (§4) These compounds were then assayed at 1 and 3 µM concentrations in co-administration with doxorubicin at a concentration of 5 µM, which is known to discriminate well between sensitive and resistant cells. […] Moreover, in the A549/DOX cell line, the co-administration of 1, 2, 4–6, 14 and 19, tested at 3 µM, led to the highest enhancement of doxorubicin toxicity reaching a reduction of nearly 55.0% in cell viability.
(§5) K562/DOX cells were incubated for 72 h with different concentrations of doxorubicin in combination with 1 or 3 µM of all compounds. IC50 was the concentration killing 50% of cells and was determined graphically from relative survival curves obtained by GraphPad Prism 5 software (GraphPad, San Diego, CA, USA). HT29, A549, HT29/DOX and A549/DOX cells were incubated for 48 h with 5 µM doxorubicin, alone or in combination with 1 or 3 µM of selected compounds. Cell viability of the cell lines was measured by the MTT assay, using a Synergy HT microplate spectrofluorometer (Bio-Tek Instruments, Winooski, VT, USA). The absorbance of untreated cells was considered 100%; results were expressed as a percentage of viable treated cells versus the control untreated cells.

A549/DOX cells [4] = experiment: Doxorubicin co-administration assay (MTT); format: cell-based, human; conditions: compound at 3 µM + doxorubicin 5 µM, 48 h
Procedure: as §4, §5

P-gp [5] = target: T5, P-gp (Homo sapiens, UniProt P08183); experiment: Calcein-AM transport inhibition in MDCK-MDR1 cells; format: cell-based; set-up: expressed in transfected cells; host or cells: MDCK (Madin-Darby Canine Kidney); conditions: mean ± SEM
Source text: (§6) The MDR interaction potency of these compounds was studied by detecting the inhibition of the P-gp-, MRP1- or BCRP-mediated efflux of a substrate in cells overexpressing the studied pumps. In detail, we measured the following: (i) the transport inhibition of the profluorescent probe calcein-AM (P-gp and MRP1 substrate) in MDCK-MDR1 and MDCK-MRP1 cells (P-gp- and MRP1-overexpressing cells, respectively); (ii) the transport inhibition of the fluorescent probe Hoechst 33342 (BCRP substrate) in MDCK-BCRP cells (BCRP-overexpressing cells).
Experiments were performed as previously described. MDCK-MDR1 and MDCK-MRP1 cells (30,000 cells per well) were seeded in a 96-well black CulturePlate in 100 µL of medium and allowed to grow overnight in a humidified atmosphere of 5% CO2 at 37 °C. Tested compounds (100 µL) in a final concentration ranging between 0.01 nM and 100 µM, solubilized in culture medium, were added to the monolayers. After 30 min in a humidified atmosphere of 5% CO2 at 37 °C, 100 µL of Calcein-AM in phosphate-buffered saline (PBS) was added to obtain a final concentration of 2.5 µM and the plate was incubated for 30 min. All wells were washed 3 times with 100 µL ice-cold PBS and read with Victor3 (PerkinElmer) after adding 100 µL of cold PBS. Excitation and emission wavelengths of 485 nm and 535 nm, respectively, were used. In these experimental conditions, cell Calcein-AM accumulation in the absence and in the presence of each tested compound was evaluated and compared to the basal level of fluorescence derived from untreated cells. The increase in fluorescence from the baseline level was measured in the treated wells. EC50 values were determined by fitting the rate of fluorescence increase versus log[dose].

K562/DOX cells = experiment: Doxorubicin cytotoxicity enhancement assay (MTT); format: cell-based, human; conditions: 72 h
Procedure, shortened: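 K562/DOX cells exposed 72 h to varying doxorubicin concentrations plus 1 or 3 µM test compound. Viability by MTT absorbance, expressed as percentage of untreated control cells.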

P-gp [6] = target: T5, P-gp; experiment: P-gp ATPase activity (A549/DOX cells); format: biochemical; set-up: endogenous in cells; host or cells: HT29/DOX (A27) and A549/DOX (A28); conditions: 1 µM, compared with A549
Procedure: (§7) Plasma-membrane vesicles enriched with P-gp were prepared by sequential centrifugation as detailed previously. The ATPase activity of immunopurified P-gp was evaluated spectrophotometrically by measuring the absorbance of the phosphate hydrolyzed from ATP at 620 nm, using a Synergy HT Multi-Detection Microplate Reader (Bio-Tek Instruments). The absorbance was converted into μmol hydrolyzed phosphate/min/mg proteins, according to the titration curve previously prepared.

HT29/DOX cells [7] = experiment: TBARS (lipid peroxidation, 4-HNE kit); format: cell-based, human; conditions: 1 µM
Procedure: (§8) Selected compounds have been tested for their cytotoxic activity at 24 h on HT29/DOX and A549/DOX cells and on the parental HT29 and A549 cells by MTT assay. To evaluate the mechanisms involved in CS, reactive oxygen species (ROS) were measured using the fluorescent probe 5-(and-6)-chloromethyl-2′,7′-dichlorodihydro-fluorescein diacetate-acetoxymethyl ester (DCFDA-AM), as previously reported. The results were expressed as nmol/mg cellular proteins. The amount of TBARS, as an index of lipoperoxidation, was measured with the Lipid Peroxidation (4-HNE) Assay Kit (Abcam, Cambridge, UK) that evaluates the 4-hydroxy-nonenale, one of the TBARS Results were expressed as nmoles/mg mitochondrial protein.

A549/DOX cells [8] = experiment: TBARS (lipid peroxidation, 4-HNE kit); format: cell-based, human; conditions: 1 µM
Procedure: as §8

HT29/DOX cells [9] = experiment: Intrinsic cytotoxicity (MTT); format: cell-based, human; conditions: compound alone, 1 µM, 48 h; HT29/DOX vs HT29
Procedure: (§9) All compounds were preliminarily studied to evaluate their intrinsic cytotoxicity at different concentrations (from 10 nM to 50 µM) in the parental HT29 and A549 and the resistant HT29/DOX and A549/DOX cells using the MTT assay.
(§10) The intrinsic toxicity of the studied compounds was determined by an MTT assay. K562 and K562/DOX were exposed for 72 h with compounds at 1 and 3 µM concentrations while HT29, A549, HT29/DOX and A549/DOX cells were incubated for 48 h with compounds used at different concentrations (from 10 nM to 50 µM). The percentage of growth compared to the untreated control was transformed into histograms with the GraphPad Prism 5 program. […]

A549/DOX cells [10] = experiment: Intrinsic cytotoxicity (MTT); format: cell-based, human; conditions: compound alone, 1 µM, 48 h; A549/DOX vs A549
Procedure: as §9, §10

MRP1 = target: T6, MRP1 (Homo sapiens, UniProt P33527); experiment: Calcein-AM transport inhibition in MDCK-MRP1 cells; format: cell-based; conditions: mean ± SEM
T6 construct: expressed in transfected cells; host or cells: MDCK (Madin-Darby Canine Kidney)
Source text: as §6
Experiments were performed as previously described. MDCK-MDR1 and MDCK-MRP1 cells (30,000 cells per well) were seeded in a 96-well black CulturePlate in 100 µL of medium and allowed to grow overnight in a humidified atmosphere of 5% CO2 at 37 °C. […] All wells were washed 3 times with 100 µL ice-cold PBS and read with Victor3 (PerkinElmer) after adding 100 µL of cold PBS. […] In these experimental conditions, cell Calcein-AM accumulation in the absence and in the presence of each tested compound was evaluated and compared to the basal level of fluorescence derived from untreated cells. The increase in fluorescence from the baseline level was measured in the treated wells. EC50 values were determined by fitting the rate of fluorescence increase versus log[dose].

HT29/DOX cells [11] = experiment: ROS measurement (DCFDA-AM); format: cell-based, human; conditions: 1 µM
Procedure: as §8

A549/DOX cells [12] = experiment: ROS measurement (DCFDA-AM); format: cell-based, human; conditions: 1 µM
Procedure: as §8

HT29/DOX cells [13] = experiment: Membrane fluidity; format: cell-based, human; conditions: 1 µM
Procedure: (§11) Membrane fluidity was measured fluorometrically using the Membrane Fluidity Kit, Abcam, according to the manufacturer’s instructions.

A549/DOX cells [14] = experiment: Membrane fluidity; format: cell-based, human; conditions: 1 µM
Procedure: as §11

P-gp [15] = target: T5, P-gp; experiment: P-gp ATPase activity (HT29/DOX cells); format: biochemical; set-up: endogenous in cells; host or cells: HT29/DOX (A27) and A549/DOX (A28); conditions: 1 µM, compared with HT29
Procedure: as §7

T5 sequence (P08183 whole entry): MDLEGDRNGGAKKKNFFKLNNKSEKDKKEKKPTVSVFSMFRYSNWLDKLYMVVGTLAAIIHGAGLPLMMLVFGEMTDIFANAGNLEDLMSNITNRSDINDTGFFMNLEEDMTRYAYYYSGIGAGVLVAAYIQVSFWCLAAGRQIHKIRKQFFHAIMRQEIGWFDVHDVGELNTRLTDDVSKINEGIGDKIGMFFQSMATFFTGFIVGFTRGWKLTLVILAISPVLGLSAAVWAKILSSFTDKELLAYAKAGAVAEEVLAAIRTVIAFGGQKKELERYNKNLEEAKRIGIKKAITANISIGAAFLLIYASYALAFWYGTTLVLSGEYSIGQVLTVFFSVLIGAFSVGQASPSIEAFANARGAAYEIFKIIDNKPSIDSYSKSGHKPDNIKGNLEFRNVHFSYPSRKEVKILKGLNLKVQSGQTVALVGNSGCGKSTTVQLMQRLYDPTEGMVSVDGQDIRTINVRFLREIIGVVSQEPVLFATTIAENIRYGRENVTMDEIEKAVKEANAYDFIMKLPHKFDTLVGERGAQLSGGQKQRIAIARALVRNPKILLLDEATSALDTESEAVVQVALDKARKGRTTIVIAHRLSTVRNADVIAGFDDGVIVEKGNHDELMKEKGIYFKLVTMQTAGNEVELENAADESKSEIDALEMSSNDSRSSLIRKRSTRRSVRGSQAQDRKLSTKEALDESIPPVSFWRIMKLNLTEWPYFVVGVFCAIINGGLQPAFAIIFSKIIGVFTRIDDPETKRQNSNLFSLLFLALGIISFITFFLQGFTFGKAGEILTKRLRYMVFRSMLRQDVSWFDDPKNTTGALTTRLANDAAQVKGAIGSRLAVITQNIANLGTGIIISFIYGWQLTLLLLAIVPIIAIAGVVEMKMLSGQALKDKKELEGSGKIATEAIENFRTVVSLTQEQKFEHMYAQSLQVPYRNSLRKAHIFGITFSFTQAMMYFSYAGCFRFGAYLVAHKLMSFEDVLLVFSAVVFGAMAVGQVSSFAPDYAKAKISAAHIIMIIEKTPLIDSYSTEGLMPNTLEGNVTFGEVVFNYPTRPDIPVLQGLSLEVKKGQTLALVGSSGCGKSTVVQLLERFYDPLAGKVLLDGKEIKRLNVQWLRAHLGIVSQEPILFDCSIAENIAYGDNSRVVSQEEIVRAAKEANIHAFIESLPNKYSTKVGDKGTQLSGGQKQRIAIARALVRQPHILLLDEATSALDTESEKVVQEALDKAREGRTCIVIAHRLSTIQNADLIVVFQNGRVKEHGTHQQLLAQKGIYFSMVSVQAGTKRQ
T4 sequence (O43570 25-354): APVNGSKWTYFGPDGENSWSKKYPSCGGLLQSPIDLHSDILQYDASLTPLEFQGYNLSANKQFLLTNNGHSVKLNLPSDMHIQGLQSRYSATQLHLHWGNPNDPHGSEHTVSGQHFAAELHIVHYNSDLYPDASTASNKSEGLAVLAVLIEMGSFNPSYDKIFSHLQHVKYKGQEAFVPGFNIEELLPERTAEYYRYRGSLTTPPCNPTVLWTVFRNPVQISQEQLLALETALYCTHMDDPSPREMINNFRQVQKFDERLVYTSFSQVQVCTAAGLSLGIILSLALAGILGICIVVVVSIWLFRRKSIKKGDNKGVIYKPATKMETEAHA
T2 sequence (P00915 whole entry): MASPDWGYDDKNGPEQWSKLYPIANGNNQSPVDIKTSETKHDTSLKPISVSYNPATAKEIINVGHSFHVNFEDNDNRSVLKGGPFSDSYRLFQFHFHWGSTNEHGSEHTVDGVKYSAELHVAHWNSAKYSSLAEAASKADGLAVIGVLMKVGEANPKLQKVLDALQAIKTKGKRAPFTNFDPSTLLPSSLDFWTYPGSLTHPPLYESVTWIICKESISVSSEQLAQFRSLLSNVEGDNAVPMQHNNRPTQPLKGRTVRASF
T6 sequence (P33527 whole entry): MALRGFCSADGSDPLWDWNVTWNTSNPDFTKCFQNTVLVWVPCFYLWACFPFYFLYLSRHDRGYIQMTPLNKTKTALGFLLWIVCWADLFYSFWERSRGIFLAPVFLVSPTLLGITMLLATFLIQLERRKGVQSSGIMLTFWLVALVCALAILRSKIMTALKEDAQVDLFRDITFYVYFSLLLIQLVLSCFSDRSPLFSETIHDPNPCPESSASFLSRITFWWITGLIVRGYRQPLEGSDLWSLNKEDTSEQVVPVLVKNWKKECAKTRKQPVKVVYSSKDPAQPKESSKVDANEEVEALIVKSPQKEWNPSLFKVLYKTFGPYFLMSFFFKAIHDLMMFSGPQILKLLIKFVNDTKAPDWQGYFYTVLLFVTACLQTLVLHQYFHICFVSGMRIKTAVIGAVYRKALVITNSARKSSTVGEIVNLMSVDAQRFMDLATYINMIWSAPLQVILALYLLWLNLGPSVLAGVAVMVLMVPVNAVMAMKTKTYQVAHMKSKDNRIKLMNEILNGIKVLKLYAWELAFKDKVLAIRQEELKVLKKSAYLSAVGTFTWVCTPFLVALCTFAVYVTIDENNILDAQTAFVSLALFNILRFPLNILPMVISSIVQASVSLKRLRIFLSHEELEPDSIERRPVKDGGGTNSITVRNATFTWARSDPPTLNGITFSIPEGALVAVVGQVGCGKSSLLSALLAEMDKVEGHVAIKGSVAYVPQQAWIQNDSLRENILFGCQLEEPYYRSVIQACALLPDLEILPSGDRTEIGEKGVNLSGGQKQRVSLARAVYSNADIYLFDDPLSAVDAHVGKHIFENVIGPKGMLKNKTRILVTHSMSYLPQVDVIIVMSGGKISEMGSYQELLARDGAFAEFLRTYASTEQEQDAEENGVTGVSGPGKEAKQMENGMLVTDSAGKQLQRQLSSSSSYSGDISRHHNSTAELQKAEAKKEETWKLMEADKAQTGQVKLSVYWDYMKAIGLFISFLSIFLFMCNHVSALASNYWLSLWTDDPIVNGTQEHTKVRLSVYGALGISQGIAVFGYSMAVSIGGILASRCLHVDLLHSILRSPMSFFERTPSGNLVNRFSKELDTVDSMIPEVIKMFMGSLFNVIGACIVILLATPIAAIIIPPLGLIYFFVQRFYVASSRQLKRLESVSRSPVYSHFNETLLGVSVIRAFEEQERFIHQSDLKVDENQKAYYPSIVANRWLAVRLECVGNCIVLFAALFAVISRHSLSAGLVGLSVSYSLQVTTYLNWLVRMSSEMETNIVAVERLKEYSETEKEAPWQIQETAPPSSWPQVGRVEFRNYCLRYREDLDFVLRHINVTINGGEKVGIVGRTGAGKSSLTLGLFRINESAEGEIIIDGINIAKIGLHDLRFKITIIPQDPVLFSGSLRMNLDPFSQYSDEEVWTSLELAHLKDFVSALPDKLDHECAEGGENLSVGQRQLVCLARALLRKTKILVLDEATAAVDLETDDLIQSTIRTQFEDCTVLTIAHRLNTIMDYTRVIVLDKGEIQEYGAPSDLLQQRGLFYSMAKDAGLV

With COc1ccc(C(CCCN2CCN(CCCCOc3ccc4oc(=O)ccc4c3)CC2)c2ccc(OC)cc2)cc1 [Compound 33, 6-(4-(4-(4,4-Bis(4-methoxyphenyl)butyl)piperazin-1-yl)butoxy)-2H-chromen-2-one] the Ki (hCA IX) was 0.0746 µM, the Ki (hCA I) was > 10 µM and the Ki (hCA II) was > 10 µM. The Ki (hCA XII) was 0.0468 µM, the “greater accumulation of doxorubicin” value (HT29/DOX cells [1]) was 3 fold and the “greater accumulation of doxorubicin” value (A549/DOX cells [2]) was 4 fold. For the same molecule, the “reduction in cell viability” value (HT29/DOX cells [3]) was 67.6%, the “reduction in cell viability” value (A549/DOX cells [4]) was 62.6% and the EC50 (P-gp [5]) was 3.02 ± 0.09 µM. The “RF (Reversal Fold: IC50 of doxorubicin alone / in presence of modulator)” value (K562/DOX cells; compound at 1 µM) was 9.9.
In the case of COc1cc(CN2CCN(CCOc3ccc4ccc(=O)oc4c3)CC2)cc(OC)c1OC [Compound 13, 7-(2-(4-(3,4,5-Trimethoxybenzyl)piperazin-1-yl)ethoxy)-2H-chromen-2-one], the Ki (hCA IX) is reported as 0.0237 µM, the Ki (hCA I) is reported as > 10 µM and the Ki (hCA II) is reported as > 10 µM. The Ki (hCA XII) was 0.0062 µM, the P-gp catalytic activity (P-gp [6]) was “lowered the catalytic efficacy of P-gp in resistant cells to levels comparable to drug-sensitive HT29 and A549 cells” and the “increase of TBARS levels compared to the control” value (HT29/DOX cells [7]) was 2.6 times. For the same molecule, the “increase of TBARS levels compared to the control” value (A549/DOX cells [8]) was 4 times, the “more cytotoxic in resistant cells than in parental sensitive cells” value (HT29/DOX cells [9]) was 15%-20% and the “more cytotoxic in resistant cells than in parental sensitive cells” value (A549/DOX cells [10]) was 15%-20%. The EC50 (MRP1) was 52 ± 10 µM, the “increase of ROS levels compared to the control” value (HT29/DOX cells [11]) was 3–4 times and the “increase of ROS levels compared to the control” value (A549/DOX cells [12]) was 7–8 times. For the same molecule, the EC50 (P-gp [5]) was 14.5 ± 0.25 µM, the membrane fluidity (HT29/DOX cells [13]) was “increased membrane fluidity” and the membrane fluidity (A549/DOX cells [14]) was “increased membrane fluidity”. For the same molecule, the “RF (Reversal Fold: IC50 of doxorubicin alone / in presence of modulator)” value (K562/DOX cells; compound at 1 µM) was 1.0, the “RF (Reversal Fold: IC50 of doxorubicin alone / in presence of modulator)” value (K562/DOX cells; compound at 3 µM) was 1.9 and the P-gp catalytic activity (P-gp [15]) was “lowered the catalytic efficacy of P-gp in resistant cells to levels comparable to drug-sensitive HT29 and A549 cells”.
